{"source": "patent US20240108634A1", "about": "“COMPOSITIONS AND METHODS FOR INHIBITING YAP” (The United States Government as represented by the …, priority 2021, published 2024)", "key": {"[1]": {"test": "Toxicity in treated mice (weight, blood cell counts, ALT, AST, creatinine)", "type": "in vivo", "from_the_text": "Data are expressed as percent of control mice that received vehicle and assigned 100%.\nMaterials and Methods. Cell culture, vectors and reagents. Normal mature human neurons were obtained from ScienCell (Carlsbad, CA). Lines were routinely tested to confirm the absence of mycoplasma and authenticated by short tandem repeat profiling (ATCC). The myc-tagged TEAD (pRK5-Myc-TEAD1) and HA-tagged YAP1 (pCl-HA-YAP) vectors were used for mammalian expression and TEAD was subcloned into pGEX-2TK, while YAP was subcloned into pET-14b for bacterial expression and purification. DNA transfections were performed using Effectene transfection reagent according to the manufacturer (QIAGEN) and lentiviral transductions were performed as previously described (Rosenbluh J, et al. (2012) Cell 151: 1457-1473). Large-scale syntheses of NSC682769 was performed by New England Discovery Partners, Branford, CT. The other reagents including kits for ALT, AST and creatinine level determinations were from Sigma-Aldrich.\nNSC682769 inhibits GBM tumor growth in xenografted mice. To examine the effects of NSC682769 in vivo, the ability of the compound to inhibit the growth of LN229 xenografted tumors implanted subcutaneously in SCID mice was tested. Following implantation, when tumors reached ˜200 mm^3, mice were randomized into treatment groups receiving vehicle, 5 mg/kg/d and 20 mg/kg/d of NSC682769. […]"}, "full-length human YAP1": {"target": "T1, full-length human YAP1 (Homo sapiens, UniProt P46937)", "T1 construct": "purified recombinant HA-tagged full-length human YAP1; made in house", "T1 sequence (P46937 whole entry, the tested form may be a part)": "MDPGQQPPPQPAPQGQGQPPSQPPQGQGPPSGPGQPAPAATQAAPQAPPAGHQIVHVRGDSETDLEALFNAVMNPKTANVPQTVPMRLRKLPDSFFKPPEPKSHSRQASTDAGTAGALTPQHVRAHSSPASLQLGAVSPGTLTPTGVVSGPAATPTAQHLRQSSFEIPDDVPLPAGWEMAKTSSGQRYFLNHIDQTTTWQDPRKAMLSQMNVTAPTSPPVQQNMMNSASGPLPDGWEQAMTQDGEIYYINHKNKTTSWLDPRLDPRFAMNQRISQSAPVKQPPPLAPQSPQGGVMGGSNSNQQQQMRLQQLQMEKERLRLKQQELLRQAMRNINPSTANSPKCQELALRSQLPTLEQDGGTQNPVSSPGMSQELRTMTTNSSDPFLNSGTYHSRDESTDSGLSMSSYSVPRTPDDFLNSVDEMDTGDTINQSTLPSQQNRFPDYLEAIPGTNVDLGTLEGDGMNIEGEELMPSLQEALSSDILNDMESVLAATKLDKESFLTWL", "test": "Inhibitor-coupled bead binding of recombinant HA-tagged YAP", "conditions": "immunoblot of bound HA-YAP", "protocol": "FIGS. 1A-G show the identification of a YAP1-TEAD1 binding interface inhibitor. […] The Gal4 DBD was fused to residues 50-171 of human YAP1 and the Gal4 AD was fused to residues 194-411 of human TEAD1. These fusions were expressed in yeast containing reporters harboring Gal4 upstream activating sequences (UAS). […] Yeast expressing either p53-DBD and SV40 large T antigen-AD fusions or YAP1-DBD and TEAD1-AD fusions were plated on selective media. Compounds were pinned onto the plate surfaces by robotic transfer and subsequently examined for halo formation (indicated by red circles). […] Pull-down products were analyzed by SDS-PAGE and silver staining. […] Raw binding sensorgrams obtained at each concentration were fitted to a 1:1 binding model and Kon, Koff and KD were calculated by simultaneous non-linear regression analyses.\nProtein and mRNA analyses, immunoprecipitation, in vitro bead-coupled inhibitor binding assays and HPLC analyses. […] Antigen-antibody complexes were detected using appropriate horseradish peroxidase-conjugated secondary antibodies (GE Healthcare) and enhanced chemiluminescence (Amersham ECL Prime). […] For quantitative RT-PCR, extraction of RNA was performed using Trizol® (Life Technologies). Total RNA was then quantified and integrity assessed using an Agilent 2100 Bioanalyzer (Agilent Technology). […]"}}}
{"smiles": "COc1ccc(-c2cc(-c3ccccc3)nc3c2CC(=O)Nc2ccccc2-3)cc1OC", "note": "[NSC682769]", "values": [{"measurement": "Overt toxicity or weight loss", "setting": "[1]; 5 and 20 mg/kg/d", "result": "No overt short or long-term toxicity or weight loss"}, {"measurement": "Blood cell counts, serum ALT, AST, creatinine", "setting": "[1]; daily IP, 5 days, 5 or 20 mg/kg/d", "result": "neither blood cell counts nor serum alanine aminotransferase (ALT), aspartate aminotransferase (AST) or creatinine levels were affected"}, {"measurement": "Binding of YAP to compound-coupled beads", "setting": "full-length human YAP1", "result": "associated strongly"}]}
